These results are taken from patent US20250288645A1, “USE OF GsMTx4 AND GsMTx4 CONJUGATES TO IMPROVE RECOVERY FROM JOINT INJURY” (priority 2023, published 2025).

“Also recorded” adds a separate entry of the source. No end group written: not given here.

In assay [1] the test system is chondrocytes. Nature of the assay: Mechano-vulnerability (impact loading) assay on cartilage of treated ACL-injured mice. To be noted: ACL-I mice, 3 weeks post-ACL-I, versus saline-treated ACL-I mice. Type of assay: in vivo, mouse. From the text:
OA was induced by a bilateral anterior cruciate ligament-injury (ACL-I) in 8-week-old C57BL/6 mice. Piezo1-labeling intensity in articular chondrocytes and nerves in subchondral bone, the OA severity (OARSI score), the mechano-vulnerability of chondrocytes, and gait parameters was compared among four experimental groups-Control (uninjured), ACL-injured, ACL-injured with saline administration, and ACL-injured with GsMT4 treatment—at 3-weeks post-ACL-I.
FIG. 1E is a diagram showing impact loading applied to cartilage over a portion of a mouse bone as part of an assay for studying the resulting area of chondrocyte death, sometimes referred to a “mechano-death” or “mechano-vulnerability” assay. See, Kotelsky, et al., Osteoarthritis and Cartilage Open, 4 (1): 100227 (2022); doi.org/10.1016/j.ocarto. 2021.100227.
FIG. 2C presents two sets of two photos from animals that have undergone bilateral ACL injury. The animal in the photos in the top row was injected after the injury with saline solution (“ACLL+saline”), while the animal in the bottom row was injected at the same time points post-injury with GsMTx4 (“ACLI+GsMTx4”). The left photos show the amount of dead cells (in red, in the color original, compared to living cells, which have taken up a green label) and after application of a 1 mJ force. FIG. 2D presents a graph showing the results of the studies.

Assay [2] deals with chondrocytes. Description: Massive rotator cuff tear mouse model: chondrocyte mechano-vulnerability. Type of assay: in vivo. To be noted: rotator cuff injury, subcutaneous injection; versus contralateral control joint and saline-injected animals. The procedure: Ethical approval was obtained from the appropriate institutional committee Humeri were harvested from wild-type 12-22 week old C57Bl/6 male and female mice. Each specimen was placed in calcium imaging buffer with 2 mM calcium chloride and subsequently incubated with 10 μM calcein-AM for 30 minutes at 37° C. To indicate intracellular esterase activity of living cells, each specimen was incubated with 10 μM yoda1, a Piezo1-specific agonist, 5 nM GSK101, a TRPV4-agonist, or control (DMSO 0.25%, n=7-10/group) in calcium imaging buffer for 15 minutes. Specimens were then incubated with 1.5 nM ethidium homodimer-1 for 3 minutes to indicate loss of plasma membrane integrity in dead cells. The specimen was then arranged in a custom 3-D printed holding device such that the chondrocytes within the apex of sphericity of the humeral head were facing the glass well of a dish to be imaged on an inverted confocal microscope. […] A custom MATLAB image processing algorithm was developed to quantify cell viability. […] Then, watershed segmentation, distance transform, and centroid approximation algorithms were created and applied to segment and quantify individual cells based on intensity values. This facilitated the cell counting process, allowed quantification of the total cell area, and allowed adjustment of the region of interest between before- and after-impact micrographs. […]

Turning to “GsMTx4 (GCLEFWWKCNPNDDKCCRPKLKCSKLFKLCNFSF-NH2; ends and bridges not checked; listed as Grammostola spatulata)”, in assay [1], the “area of chondrocyte death by mechanical impact” value is recorded as “decreased area of chondrocyte death by impact; also recorded: decreased impact-induced mechanical-susceptibility”. Further, in assay [2], the chondrocyte vulnerability result was “reduction in chondrocyte vulnerability”.
